Source: patent US12636275B2, “Pharmaceutical use of ketoamide-based compound” (Shanghai Institute of Materia Medica, Chinese Academy of …, priority 2020, dated 2026)

Target: T1, 2019-nCoV 3CL protease (Severe acute respiratory syndrome coronavirus 2, UniProt P0DTD1)
T1 construct: against 3CL protease of 2019 novel coronavirus (2019-nCoV 3CL^pro)
Assay: Inhibitory activity against 3CL protease of 2019 novel coronavirus (FRET)
Type: biochemical
Conditions: FRET, 37° C., substrate 20 μM
Protocol: To determine the inhibitory activity of the compound against 3CL protease of 2019 novel coronavirus (2019-nCoV 3CL^pro): the enzyme level inhibitory activity of inhibitors against 3CL protease was determined by fluorescence resonance energy transfer (FRET) technology. In a 96-well plate, 27.5 μL of buffer (20 mM Tris, 100 mM NaCl, 1 mM EDTA, pH 7.4) was added to each well, 2.5 μL compounds ([…], respectively) and 5 μL […] (final concentration was 3 μM) were added at the same time. Incubated at 37° C. for 15 min. Then 15 μL fluorescent substrate diluted with buffer (final concentration was 20 μM) was added. The fluorescence parameters were determined by Ge n5 fluorescence spectrophotometer. The excitation wavelength and emission wavelength were 340 nm and 490 nm respectively, kept at 37° C., and the data were read after 10 min. A negative control was used, in which no compound was added to the control, and the rest was the same.

Compound | IC50 [µM]
CC(C)(C)NC(=O)C(=O)[C@H](C[C@@H]1CCCNC1=O)NC(=O)[C@H](CC1CCCCC1)NC(=O)c1cc2ccccc2[nH]1 [Example A6, N—((S)-1-(((S)-4-(tert-butylamino)-3,4-dione-1-((S)-2-oxopiperidin-3-yl)but-2-yl)amino)-3-cyclohexyl-1-oxopropan-2-yl)-1H-indole-2-carboxamide] | 25.3
O=C(NCc1ccccc1)C(=O)[C@H](C[C@@H]1CCNC1=O)NC(=O)[C@H](CC1CCCCC1)NC(=O)c1cc2ccccc2s1 [Example A17, N—((S)-1-(((S)-4-(benzylamino)-3,4-dione-1-((S)-2-oxopyrrolidin-3-yl)but-2-yl)amino)-3-cyclohexyl-1-oxopropan-2-yl)-benzothiophene-2-carboxamide] | 12.5
Cn1c(C(=O)N[C@@H](CC2CCCCC2)C(=O)N[C@@H](C[C@@H]2CCCNC2=O)C(=O)C(=O)NC(C)(C)C)cc2ccccc21 [Example A28, N—((S)-1-(((S)-4-(tert-butylamino)-3,4-dione-1-((S)-2-oxopiperidin-3-yl)but-2-yl)amino)-3-cyclohexyl-1-oxopropan-2-yl)-1-methyl-1H-indole-2-carboxamide] | 15.2
Cn1c(C(=O)N[C@@H](CC2CCCCC2)C(=O)N[C@@H](C[C@@H]2CCCNC2=O)C(=O)C(=O)NC2CCCCC2)cc2ccccc21 [Example A29, N—((S)-3-cyclohexyl-1-(((S)-4-(cyclohexylamino)-3,4-dione-1-((S)-2-oxopiperidin-3-yl)but-2-yl)amino)-3-cyclohexyl-1-oxopropan-2-yl)-1-methyl-1H-indole-2-carboxamide] | 9.8
O=C(NC1CCCCC1)C(=O)[C@H](C[C@@H]1CCNC1=O)NC(=O)[C@H](Cc1ccccc1)NC(=O)c1cc2ccccc2o1 [Example A56] | 24.1
O=C(NC1CCCCC1)C(=O)[C@H](C[C@@H]1CCCNC1=O)NC(=O)[C@H](Cc1ccccc1)NC(=O)c1cc2ccccc2o1 [Example A59] | 23.5
CC(C)C[C@H](NC(=O)c1cc2ccccc2[nH]1)C(=O)N[C@@H](C[C@@H]1CCNC1=O)C(=O)C(=O)NCc1ccccc1 [Example A90, N—((S)-1-(((S)-4-(benzylamino)-3,4-dione-1-((S)-2-oxopyrrolidin-3-yl)but-2-yl)amino)-4-methyl-1-oxopentan-2-yl)-1H-indole-2-carboxamide] | 25.2
CC(C)C[C@H](NC(=O)c1cc2c(Cl)cc(Cl)cc2[nH]1)C(=O)N[C@@H](C[C@@H]1CCNC1=O)C(=O)C(=O)NC(C)(C)C [Example A115] | 6.5
O=C(NCc1ccccc1)C(=O)[C@H](C[C@@H]1CCNC1=O)NC(=O)[C@H](Cc1ccccc1)NC(=O)c1cn2cc(Br)ccc2n1 [Example A156] | 4.7
COc1cc(OC)c2cc(C(=O)N[C@@H](Cc3ccccc3)C(=O)N[C@@H](C[C@@H]3CCNC3=O)C(=O)C(=O)NC(C)(C)C)[nH]c2c1 [Example A221, N—((S)-1-(((S)-4-(tert-butylamino)-3,4-dione-1-((S)-2-oxopyrrolidin-3-yl)but-2-yl)amino)-1-oxo-3-phenylpropan-2-yl)-4,6-dimethoxy-1H-indole-2-carboxamide] | 5.8
CC(C)NC(=O)CC[C@H](NC(=O)[C@H](Cc1ccccc1)NC(=O)c1cc2ccccc2[nH]1)C(=O)C(=O)NCC1CCCCC1 [Example A234] | 10.3
CC(C)NC(=O)CC[C@H](NC(=O)[C@H](CC1CCCCC1)NC(=O)c1cnc2ccccc2n1)C(=O)C(=O)NCc1ccccc1 [Example A236, N—((S)-1-(((S)-4-(benzyl)-3,4-dione-1-(isopropylamino)-2-yl)amino)-3-(cyclohexyl)-1-oxopropan-2-yl)-quinoxaline-2-carboxamide] | 4.5
CC(C)NC(=O)CC[C@H](NC(=O)[C@H](Cc1ccccc1)NC(=O)c1cnc2ccccc2n1)C(=O)C(=O)NCc1ccccc1 [Example A238] | 4.8
